Source: ChEMBL document CHEMBL5126543, “Tandem construction of biological relevant aliphatic 5-membered N-heterocycles” (Eur J Med Chem, 2022)
In brackets after ≈: the same amount, converted by molar mass. Where a SMILES comes first, the peptide text is derived from it. [ ]: non-standard residue; d: D form. Pro(cis-4-CF3) = O=C(O)[C@@H]1C[C@H](C(F)(F)F)CN1; Pro(4R-Bn) = O=C(O)[C@@H]1C[C@@H](Cc2ccccc2)CN1; Pro(cis-4-F) = O=C(O)[C@@H]1C[C@H](F)CN1; Pro(4S-NH2) = N[C@@H]1CN[C@H](C(=O)O)C1

Key:
[1] = tested on: HeLa; assay: Cytotoxicity against human HeLa cells treated for 72 hrs by MTT assay; format: functional, cell-based
[2] = tested on: PC-3; assay: Cytotoxicity against human PC-3 cells treated for 72 hrs by MTT assay; format: functional, cell-based; conditions: PC-3, 72 h
[3] = tested on: MCF7; assay: Cytotoxicity against human MCF7 cells treated for 72 hrs by MTT assay; format: functional, cell-based; conditions: MCF7, 72 h
[4] = tested on: SK-BR-3; assay: Cytotoxicity against human SK-BR-3 cells treated for 72 hrs by MTT assay; format: functional, cell-based; conditions: SK-BR-3, 72 h
[5] = tested on: A549; assay: Cytotoxicity against human A549 cells treated for 72 hrs by MTT assay; format: functional, cell-based; conditions: A549, 72 h
[6] = tested on: C32; assay: Antiproliferative activity against human C32 cells measured after 72 hrs by WST-1 assay; format: functional, cell-based; conditions: C32, 72 h
[7] = tested on: SNB-19; assay: Antiproliferative activity against human SNB-19 cells measured after 72 hrs by WST-1 assay; format: functional, cell-based; conditions: SNB-19, 72 h
[8] = Cytotoxicity against HFF-1 cells measured after 72 hrs by WST-1 assay; format: toxicity, cell-based; conditions: human
[9] = tested on: MDA-MB-231; assay: Antiproliferative activity against human MDA-MB-231 cells measured after 72 hrs by WST-1 assay; format: functional, cell-based; conditions: MDA-MB-231, 72 h
[10] = tested on: Escherichia coli; assay: Antimicrobial activity against Escherichia coli ATCC 25922 incubated for 18 to 20 hrs; format: functional; conditions: time 18-20 hrs
[11] = tested on: Priestia megaterium; assay: Antimicrobial activity against Bacillus megaterium Bm11 incubated for 18 to 20 hrs; format: functional; conditions: time 18-20 hrs
[12] = tested on: Staphylococcus epidermidis; assay: Antimicrobial activity against Staphylococcus epidermidis ATCC 12228 incubated for 18 to 20 hrs; format: functional; conditions: time 18-20 hrs
[13] = tested on: Pseudomonas aeruginosa; assay: Antimicrobial activity against Pseudomonas aeruginosa ATCC 27853 incubated for 18 to 20 hrs; format: functional; conditions: time 18-20 hrs
[14] = tested on: Candida albicans; assay: Antimicrobial activity against Candida albicans ATCC 24433 incubated for 18 to 20 hrs; format: functional; conditions: time 18-20 hrs

Row | Structure (SMILES) | IC50 [9] [µM] | IC50 [1] [µM] | IC50 [2] [µM] | IC50 [3] [µM] | IC50 [4] [µM] | IC50 [5] [µM] | IC50 [6] [µM] | IC50 [7] [µM] | IC50 at 72 h [8] [µM] | further results
1 | Clc1ccc(-c2cc(Nc3ccnc4cc(Cl)ccc34)ccc2CN2CCOCC2)cc1 |  | > 200 | 11.7 | 170 | 2.98 | > 200 |  |  |  | 
2 | Clc1ccc(-c2cc(Nc3ccnc4cc(Cl)ccc34)ccc2CN2CCCC2)cc1 |  | 32 | 42.4 | > 200 | 32.7 | > 200 |  |  |  | 
3 | Clc1ccc2c(Nc3ccc(CN4CCCCC4)c(-c4ccccc4)c3)ccnc2c1 |  | 5.57 | 74.4 | > 200 | 64.3 | > 210 |  |  |  | 
4 | CCN(CC)Cc1ccc(Nc2ccnc3cc(Cl)ccc23)cc1-c1ccccc1 |  | > 200 | 34.2 | > 200 | 3.65 | 33.6 |  |  |  | 
5 | Clc1ccc2c(Nc3ccc(CN4CCOCC4)c(-c4ccccc4)c3)ccnc2c1 |  | 54.4 | 11.7 | > 200 | 76.5 | 69 |  |  |  | 
6 | Clc1ccc2c(Nc3ccc(CN4CCCC4)c(-c4ccccc4)c3)ccnc2c1 |  | < 1 | 44 | 7.99 | 0.009 | 4.38 |  |  |  | 
7 | CN1CCN(Cc2ccc(Nc3ccnc4cc(Cl)ccc34)cc2-c2ccc(Cl)cc2)CC1 |  | < 1 | 24.2 | 25 | 16.8 | 43.5 |  |  |  | 
8 | Clc1ccc(-c2cc(Nc3ccnc4cc(Cl)ccc34)ccc2CN2CCCCC2)cc1 |  | > 200 | > 200 | > 200 | 2.98 | > 200 |  |  |  | 
9 | Clc1ccc2c(Nc3ccc(CN4CCCC4)cc3)ccnc2c1 |  | 28 | 42.7 | 46.9 | 12.7 | 58.8 |  |  |  | 
10 | CCN(CC)Cc1ccc(Nc2ccnc3cc(Cl)ccc23)cc1 |  | 2.03 | > 250 | > 250 | 121 | > 250 |  |  |  | 
11 | Clc1ccc2c(Nc3ccc(CN4CCCCC4)cc3)ccnc2c1 |  | < 1 | 149 | 69.9 | 33.9 | > 250 |  |  |  | 
12 | Clc1ccc2c(Nc3ccc(CN4CCOCC4)cc3)ccnc2c1 |  | < 1 | 11.7 | 69.5 | 6.16 | > 250 |  |  |  | 
13 | CC(C)(C)NCc1ccc(Nc2ccnc3cc(Cl)ccc23)cc1 |  | 36 | 149 | > 250 | 37.3 | 197 |  |  |  | 
14 | CC[C@H](C)[C@H](NC(=O)[C@H](CCCNC(=N)N)NC(=O)CNC(=O)[C@H](CC(C)C)NC(=O)[C@H](Cc1ccccc1)NC(=O)[C@H](CCCCN)NC(=O)[C@H](CO)NC(=O)[C@H](Cc1ccccc1)NC(=O)[C@H](Cc1c[nH]c2ccccc12)NC(=O)[C@H](CCC(N)=O)NC(=O)[C@@H]1C[C@@H](Cc2ccccc2)CN1C(=O)[C@@H](NC(=O)[C@@H](N)Cc1ccccc1)C(C)C)C(=O)N[C@@H](CC(C)C)C(N)=O (H-FV[Pro(4R-Bn)]QWFSKFLGRIL-NH2) |  |  |  |  |  |  |  |  |  | MIC [10]: 25 µM (≈ 45.7 µg/mL); MIC [11]: 3.12 µM (≈ 5.7 µg/mL); MIC [12]: 3.12 µM (≈ 5.7 µg/mL); MIC [13]: 50 µM (≈ 91.4 µg/mL); MIC [14]: 25 µM (≈ 45.7 µg/mL)
15 | CC[C@H](C)[C@H](NC(=O)[C@H](CCCNC(=N)N)NC(=O)CNC(=O)[C@H](CC(C)C)NC(=O)[C@H](Cc1ccccc1)NC(=O)[C@H](CCCCN)NC(=O)[C@H](CO)NC(=O)[C@H](Cc1ccccc1)NC(=O)[C@H](Cc1c[nH]c2ccccc12)NC(=O)[C@H](CCC(N)=O)NC(=O)[C@@H]1C[C@H](N)CN1C(=O)[C@@H](NC(=O)[C@@H](N)Cc1ccccc1)C(C)C)C(=O)N[C@@H](CC(C)C)C(N)=O (H-FV[Pro(4S-NH2)]QWFSKFLGRIL-NH2) |  |  |  |  |  |  |  |  |  | MIC [10]: 3.12 µM (≈ 5.47 µg/mL); MIC [11]: 3.12 µM (≈ 5.47 µg/mL); MIC [12]: 3.12 µM (≈ 5.47 µg/mL); MIC [13]: 3.12 µM (≈ 5.47 µg/mL); MIC [14]: 12.5 µM (≈ 21.9 µg/mL)
16 | CC[C@H](C)[C@H](NC(=O)[C@H](CCCNC(=N)N)NC(=O)CNC(=O)[C@H](CC(C)C)NC(=O)[C@H](Cc1ccccc1)NC(=O)[C@H](CCCCN)NC(=O)[C@H](CO)NC(=O)[C@H](Cc1ccccc1)NC(=O)[C@H](Cc1c[nH]c2ccccc12)NC(=O)[C@H](CCC(N)=O)NC(=O)[C@@H]1C[C@H](C(F)(F)F)CN1C(=O)[C@@H](NC(=O)[C@@H](N)Cc1ccccc1)C(C)C)C(=O)N[C@@H](CC(C)C)C(N)=O (H-FV[Pro(cis-4-CF3)]QWFSKFLGRIL-NH2) |  |  |  |  |  |  |  |  |  | MIC [10]: 12.5 µM (≈ 22.6 µg/mL); MIC [11]: 3.12 µM (≈ 5.63 µg/mL); MIC [12]: 3.12 µM (≈ 5.63 µg/mL); MIC [13]: 25 µM (≈ 45.1 µg/mL); MIC [14]: 12.5 µM (≈ 22.6 µg/mL)
17 | CC[C@H](C)[C@H](NC(=O)[C@H](CCCNC(=N)N)NC(=O)CNC(=O)[C@H](CC(C)C)NC(=O)[C@H](Cc1ccccc1)NC(=O)[C@H](CCCCN)NC(=O)[C@H](CO)NC(=O)[C@H](Cc1ccccc1)NC(=O)[C@H](Cc1c[nH]c2ccccc12)NC(=O)[C@H](CCC(N)=O)NC(=O)[C@@H]1C[C@H](F)CN1C(=O)[C@@H](NC(=O)[C@@H](N)Cc1ccccc1)C(C)C)C(=O)N[C@@H](CC(C)C)C(N)=O (H-FV[Pro(cis-4-F)]QWFSKFLGRIL-NH2) |  |  |  |  |  |  |  |  |  | MIC [10]: 12.5 µM (≈ 21.9 µg/mL); MIC [11]: 3.12 µM (≈ 5.48 µg/mL); MIC [12]: 3.12 µM (≈ 5.48 µg/mL); MIC [13]: 12.5 µM (≈ 21.9 µg/mL); MIC [14]: 12.5 µM (≈ 21.9 µg/mL)
18 | COc1cc2c(c(OC)c1OC)-c1ccc(OC)c(=O)cc1[C@@H](NC(C)=O)CC2 [COLCHICINE] |  |  | 0.03 | 25 | 0.04 |  |  |  |  | 
19 | COc1cccc2c1C(=O)c1c(O)c3c(c(O)c1C2=O)C[C@@](O)(C(=O)CO)C[C@@H]3O[C@H]1C[C@H](N)[C@H](O)[C@H](C)O1 [DOXORUBICIN] |  | 2.45 | 1.66 | 3.62 | 2.36 |  |  |  |  | 

The next lines start with results.

Row | IC50 [9] [µM] | Structure (SMILES) | IC50 [1] [µM] | IC50 [2] [µM] | IC50 [3] [µM] | IC50 [4] [µM] | IC50 [5] [µM] | IC50 [6] [µM] | IC50 [7] [µM] | IC50 at 72 h [8] [µM] | further results
20 | 50.8 | Cn1cnc2nc(SCC#CCN3CCOCC3)nc(SCC#CCN3CCOCC3)c21 |  |  |  |  |  | 21.5 | 21.5 | 0.37 | 
21 | 364 | Cn1c(SCC#CCN2CCCCC2)nc2c1c(=O)[nH]c(=O)n2C |  |  |  |  |  | 355 | 166 | 30.4 | 
22 | 472 | Cn1c(SCC#CCN2CCCC2)nc2c1c(=O)[nH]c(=O)n2C |  |  |  |  |  | 51.1 | 177 | 34.3 | 
23 | 3.83 | Cn1c(SCC#CCN2CCCC2)nc2nc(Cl)nc(SCC#CCN3CCCC3)c21 |  |  |  |  |  | 4.55 | 0.52 | 3.63 | 
24 | 38.5 | CCN(CC)CC#CCSc1nc(SCC#CCN(CC)CC)c2c(ncn2C)n1 |  |  |  |  |  | 23.9 | 48.9 | 5.95 | 
25 | 38.1 | Cn1c(SCC#CCN2CCCCC2)nc2nc(Cl)nc(SCC#CCN3CCCCC3)c21 |  |  |  |  |  | 19.1 | 11.6 | 5.5 | 
26 | 68.1 | CCN(CC)CC#CCSc1nc2c(c(=O)[nH]c(=O)n2C)n1C |  |  |  |  |  | 26.4 | 1.48 | 3.68 | 
27 | 74 | Cn1c(SCC#CCN2CCOCC2)nc2nc(Cl)nc(SCC#CCN3CCOCC3)c21 |  |  |  |  |  | 4.08 | 26.1 | 36.4 | 
28 | 6.54 | Cn1c(SCC#CCN2CCOCC2)nc2c1c(=O)[nH]c(=O)n2C |  |  |  |  |  | 22.7 | 1.39 | 5.87 | 
29 | 7.35 | Cn1cnc2nc(SCC#CCN3CCCCC3)nc(SCC#CCN3CCCCC3)c21 |  |  |  |  |  | 6.39 | 4.64 | 3.98 | 
30 | 10 | CCN(CC)CC#CCSc1nc(Cl)nc2nc(SCC#CCN(CC)CC)n(C)c12 |  |  |  |  |  | 5.33 | 2.91 | 1 | 
31 | 19.9 | Cn1cnc2nc(SCC#CCN3CCCC3)nc(SCC#CCN3CCCC3)c21 |  |  |  |  |  | 6.81 | 19.4 | 10 | 
